Data reported in patent US9107415B2, “2-(substituted-phenyl)-cyclopentane-1,3-dione compounds, and derivatives thereof” (Syngenta Limited, priority 2011, dated 2015).

Assays:
Assay type in all cases: in vivo
[1] = test system: Spring Barley “Harrington”; experiment: Biological Example 4B post-emergence phytotoxicity on cereal crops; settings: 14 DAA, technical compound in IF50 + Adigor, mean of two
Procedure: (§1) Seeds of a variety of test species are sown in standard soil in pots. After cultivation for 14 days under controlled conditions in a glasshouse (at 22/16°C., day/night; 16 hours light; 65% humidity), the plants are sprayed with an aqueous spray solution derived from the formulation of the technical active ingredient dissolved in acetone plus IF50 containing
(§2) 10.56 wt % Emulsogen™EL (castor oil ethoxylate, CAS Registry number 61791-12-6)
(§3) 42.22 wt % N-Methyl pyrrolidone
(§4) 42.22 wt % dipropylene glycol monoethyl ether
(§5) at a 1:20 ratio of (technical active ingredient:IF50). The adjuvant Adigor™(an adjuvant containing inter alia methylated rapeseed oil, e.g. available from Syngenta) is added to form a 0.5% v/v solution. The test plants are then grown on under controlled conditions in the glasshouse (at 22/16°C., day/night; 16 hours light; 65% humidity) and are watered twice daily. After 14 days the test is evaluated (100%=total damage to plant; 0%=no damage to plant).
(§6) Post-emergence herbicidal activity (phytotoxicity) data, on certain grassy monocotyledonous weeds and cereal crops in a glasshouse, are measured 14 days after application of the herbicide (14 DAA), for (a) a post-emergence application rate of 60 g/ha of the test herbicide with or without 50 g/ha of cloquintocet-mexyl safener applied at substantially the same time as the herbicide, and (b) for a post-emergence application rate of 30 g/ha of the test herbicide with 50 g/ha of cloquintocet-mexyl safener applied at substantially the same time as the herbicide. Herbicidal activity (phytotoxicity) is evaluated visually, and an assessed percentage phytotoxicity score is given for each herbicidal application on each plant species (with 100%=total damage to plant; 0%=no damage to plant). Two repetitions are made for each experiment, and the mean herbicidal activity (phytotoxicity) data is reported.

[2] = test system: Lolium perenne, perennial ryegrass (LOLPE); experiment: Biological Example 3 glasshouse screen, post-emergence herbicidal activity; settings: 360 h, 15 DAA, no safener, read-out: LOLPE percentage phytotoxicity; for pest or weed control at 30 g/ha: application rate 30 g/ha; for pest or weed control at 60 g/ha: application rate 60 g/ha
Summary of the method: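 Selectivity screen without safener: 12-day-old plants sprayed post-emergence with acetone/IF50-formulated compound plus 0.2% v/v X-77, kept in glasshouse, visually rated for % injury 15 days after application.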

[3] = test system: Alopecurus myosuroides (ALOMY); experiment: Biological Example 1 glasshouse screen, pre-emergence herbicidal activity; settings: 312 h, application rate 250 g/ha, evaluated after 13 days, read-out: ALOMY percentage phytotoxicity
Summary of the method: (§7)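 Read-out: visual percentage phytotoxicity at 13 days, 0% no damage to 100% total damage. Spray solution of unformulated compound in 50:50 acetone/water plus 0.5% Tween 20, applied to potted plants one day after sowing (pre) or after 8 days' growth (post).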

[4] = test system: Echinochloa crus-galli (ECHCG); experiment: as above; settings: 312 h, application rate 250 g/ha, evaluated after 13 days, read-out: ECHCG percentage phytotoxicity
Summary of the method: as §7

Spring Wheat “Teal” = experiment: Biological Example 4B post-emergence phytotoxicity on cereal crops; settings: 14 DAA, technical compound in IF50 + Adigor, mean of two
Procedure: as §1, §2, §3, §4, §5
as §6, with “post-emergence application rate of 60 g/ha of the test herbicide with or without 50 g/ha of cloquintocet-mexyl safener applied at substantially” left out

[5] = test system: Alopecurus myosuroides (ALOMY); experiment: Biological Example 1 glasshouse screen, post-emergence herbicidal activity; settings: 312 h, application rate 250 g/ha, evaluated after 13 days, read-out: ALOMY percentage phytotoxicity
Summary of the method: as §7

[6] = test system: Echinochloa crus-galli (ECHCG); experiment: as above; settings: 312 h, application rate 250 g/ha, evaluated after 13 days, read-out: ECHCG percentage phytotoxicity
Summary of the method: as §7

[7] = test system: Lolium multiflorum (LOLMU); experiment: Biological Example 4B (not-previously-formulated compounds) post-emergence herbicidal activity on grassy weeds; settings: 14 DAA, technical compound in IF50 + Adigor, mean of two
Procedure: as §1, §2, §3, §4, §5
as §6, with “post-emergence application rate of 60 g/ha of the test herbicide with or without 50 g/ha of cloquintocet-mexyl safener applied at substantially” left out
Test plants: Avena fatua (AVEFA), Lolium multiflorum (LOLMU), Setaria viridis (SETVI), Poa annua (POAAN), Alopecurus myosuroides (ALOMY). All five of these are grassy monocotyledonous weeds.

[8] = 30 g/ha, cloquintocet-mexyl 50 g/ha
[9] = 60 g/ha, cloquintocet-mexyl 0 g/ha
[10] = 60 g/ha, cloquintocet-mexyl 50 g/ha
[11] = 15 g/ha, cloquintocet-mexyl 50 g/ha

Row | SMILES | Spring Barley “Harrington” phytotoxicity (%) [1, 8] | Spring Barley “Harrington” phytotoxicity (%) [1, 9] | Spring Barley “Harrington” phytotoxicity (%) [1, 10] | pest or weed control at 30 g/ha [2] | pest or weed control at 250 g/ha [3] | pest or weed control at 250 g/ha [4] | Spring Wheat “Teal” phytotoxicity (%) (Spring Wheat “Teal”; [8]) | Spring Wheat “Teal” phytotoxicity (%) (Spring Wheat “Teal”; [9]) | Spring Wheat “Teal” phytotoxicity (%) (Spring Wheat “Teal”; [10]) | pest or weed control at 250 g/ha [5] | pest or weed control at 250 g/ha [6] | LOLMU % phytotoxicity [7, 8] | LOLMU % phytotoxicity [7, 9] | LOLMU % phytotoxicity [7, 10] | pest or weed control at 60 g/ha [2] | pest or weed control at 15 g/ha ([2]; application rate 15 g/ha) | Spring Wheat “Teal” phytotoxicity (%) (Spring Wheat “Teal”; [11]) | LOLMU % phytotoxicity [7, 11]
1 | CC#Cc1cc(C)c(C2=C(O)CC(Cc3ccc(C)cn3)C2=O)c(C)c1 (stereo not shown) [Compound A-8] | 18% | 85% | 75% | 90% | 100% | 100% | 0% | 73% | 25% | 100% | 100% | 68% | 92% | 94% |  |  |  | 
2 | CC#Cc1cc(C)c(C2=C(O)CC(Cc3ccc(F)cn3)C2=O)c(C)c1 (stereo not shown) [Compound A-11] | 8% | 58% | 13% | 80% | 90% | 100% | 8% | 38% | 15% | 100% | 100% | 68% | 95% | 88% | 100% |  |  | 
3 | CC#Cc1cc(C)c(C2=C(O)CC(Cc3ccc(C#N)cn3)C2=O)c(C)c1 (stereo not shown) [Compound A-14] | 70% | 95% | 95% | 70% | 90% | 90% | 13% | 83% | 65% | 100% | 100% | 88% | 100% | 97% | 80% |  |  | 
4 | CC#Cc1cc(C)c(C2C(=O)CC(Cc3ccn(C)n3)C2=O)c(C)c1 (stereo not shown) [Compound A-19] | 38% | 98% | 94% | 80% | 100% | 100% | 73% | 90% | 83% | 100% | 100% | 100% | 100% | 100% |  | 30% | 23% | 98%
